Read-outs that look alike come from different tables or passages of the source.
What was measured:
BRG-1 = target: T1, BRG-1 (Homo sapiens, UniProt P51532); assay: ATPase catalytic activity of BRG-1, ADP-Glo in vitro biochemical assay; details: 30 nM BRG-1, 400 μM ATP, read-out: BRG1 IC50
T1 construct: made in house; host or cells: High Five insect cells
Protocol: (§1) The ATPase catalytic activity of BRM or BRG-1 was measured by an in vitro biochemical assay using ADP-Glo™ (Promega, V9102). The ADP-Glo™ kinase assay is performed in two steps once the reaction is complete. The first step is to deplete any unconsumed ATP in the reaction. The second step is to convert the reaction product ADP to ATP, which will be utilized by the luciferase to generate luminesce and be detected by a luminescence reader, such as Envision.
Then, following addition of 5 μL of ADP-Glo™ Reagent provided in the kit, the reaction incubates at room temperature for 40 minutes. Then, 10 μL of Kinase Detection Reagent provided in the kit is added to convert ADP to ATP, and the reaction incubates at room temperature for 60 minutes. Finally, luminescence measurement is collected with a plate-reading luminometer, such as Envision.

BRM = target: T2, BRM (Homo sapiens, UniProt P51531); assay: ATPase catalytic activity of BRM, ADP-Glo in vitro biochemical assay; details: for IC50: 30 nM BRM, 400 μM ATP; for Ratio* (BRG1 IC50 (μM) divided by BRM IC50 (μM)): selectivity ratio BRG1 IC50 / BRM IC50
T2 construct: made in house; host or cells: High Five insect cells
Protocol: as §1
The assay reaction mixture ([…]) contains 30 nM of BRM or BRG-1, 20 nM salmon sperm DNA (from Invitrogen, UfraPure™ Salmon Sperm DNA Solution, cat #15632011), and 400 μM of ATP in the ATPase assay buffer, which comprises of 20 mM Tris, pH 8, 20 mM MgCl2, 50 mM NaCl, 0.1% Tween-20, and 1 mM fresh DTT (Piercer™ DTT (Dithiothreitol), cat #20290). The reaction is initiated by the addition of the 2.5 μL ATPase solution to 2.5 μL ATP/DNA solution on low volume white Proxiplate-384 plus plate (PerkinElmer, cat #6008280) and incubates at room temperature for 1 hour. Then, following addition of 5 μL of ADP-Glo™ Reagent provided in the kit, the reaction incubates at room temperature for 40 minutes. Then, 10 μL of Kinase Detection Reagent provided in the kit is added to convert ADP to ATP, and the reaction incubates at room temperature for 60 minutes. Finally, luminescence measurement is collected with a plate-reading luminometer, such as Envision.

[1] = ATPase catalytic activity, ADP-Glo

T1 sequence (P51532 whole entry): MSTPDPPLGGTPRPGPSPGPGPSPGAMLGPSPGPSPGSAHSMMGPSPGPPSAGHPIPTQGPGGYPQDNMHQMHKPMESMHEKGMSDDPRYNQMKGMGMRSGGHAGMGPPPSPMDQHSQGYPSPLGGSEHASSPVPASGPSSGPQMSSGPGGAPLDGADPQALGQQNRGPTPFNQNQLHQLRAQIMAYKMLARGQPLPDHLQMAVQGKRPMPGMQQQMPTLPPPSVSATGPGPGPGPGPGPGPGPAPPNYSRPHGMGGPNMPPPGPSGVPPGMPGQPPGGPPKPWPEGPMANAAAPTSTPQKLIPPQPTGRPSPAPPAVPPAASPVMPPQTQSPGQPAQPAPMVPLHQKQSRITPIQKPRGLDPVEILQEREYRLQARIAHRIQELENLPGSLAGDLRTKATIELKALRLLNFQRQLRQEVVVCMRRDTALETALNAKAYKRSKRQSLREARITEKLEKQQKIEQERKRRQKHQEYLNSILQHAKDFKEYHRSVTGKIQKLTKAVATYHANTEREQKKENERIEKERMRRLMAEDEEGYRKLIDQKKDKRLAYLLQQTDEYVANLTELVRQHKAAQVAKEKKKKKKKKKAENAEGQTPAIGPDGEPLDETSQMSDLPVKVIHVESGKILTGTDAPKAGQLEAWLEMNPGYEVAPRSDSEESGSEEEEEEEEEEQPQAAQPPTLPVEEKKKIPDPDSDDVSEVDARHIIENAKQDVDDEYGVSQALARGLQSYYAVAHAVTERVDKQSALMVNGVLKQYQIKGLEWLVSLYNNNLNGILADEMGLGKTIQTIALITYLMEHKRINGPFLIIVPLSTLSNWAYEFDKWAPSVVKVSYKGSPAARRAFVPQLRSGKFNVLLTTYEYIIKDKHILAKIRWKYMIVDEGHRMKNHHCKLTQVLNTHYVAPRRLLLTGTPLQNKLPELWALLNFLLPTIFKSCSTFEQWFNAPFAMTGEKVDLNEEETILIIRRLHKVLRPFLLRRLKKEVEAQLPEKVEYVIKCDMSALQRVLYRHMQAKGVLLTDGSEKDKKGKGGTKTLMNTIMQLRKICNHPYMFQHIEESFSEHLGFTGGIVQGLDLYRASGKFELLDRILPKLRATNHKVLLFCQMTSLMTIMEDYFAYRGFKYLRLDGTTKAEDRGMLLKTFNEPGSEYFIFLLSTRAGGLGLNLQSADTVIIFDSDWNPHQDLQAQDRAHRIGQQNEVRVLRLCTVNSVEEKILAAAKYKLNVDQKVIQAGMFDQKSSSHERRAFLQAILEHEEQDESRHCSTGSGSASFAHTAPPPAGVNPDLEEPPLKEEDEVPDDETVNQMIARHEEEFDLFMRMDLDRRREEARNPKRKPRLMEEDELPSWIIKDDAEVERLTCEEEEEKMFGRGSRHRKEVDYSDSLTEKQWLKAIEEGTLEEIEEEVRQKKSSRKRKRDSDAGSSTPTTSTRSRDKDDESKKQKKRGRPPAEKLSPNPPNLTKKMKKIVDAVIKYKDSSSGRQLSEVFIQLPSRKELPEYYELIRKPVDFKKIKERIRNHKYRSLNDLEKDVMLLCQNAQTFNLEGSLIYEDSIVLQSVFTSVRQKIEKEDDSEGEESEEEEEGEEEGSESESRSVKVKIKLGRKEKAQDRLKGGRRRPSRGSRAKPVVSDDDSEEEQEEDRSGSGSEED
T2 sequence (P51531 whole entry): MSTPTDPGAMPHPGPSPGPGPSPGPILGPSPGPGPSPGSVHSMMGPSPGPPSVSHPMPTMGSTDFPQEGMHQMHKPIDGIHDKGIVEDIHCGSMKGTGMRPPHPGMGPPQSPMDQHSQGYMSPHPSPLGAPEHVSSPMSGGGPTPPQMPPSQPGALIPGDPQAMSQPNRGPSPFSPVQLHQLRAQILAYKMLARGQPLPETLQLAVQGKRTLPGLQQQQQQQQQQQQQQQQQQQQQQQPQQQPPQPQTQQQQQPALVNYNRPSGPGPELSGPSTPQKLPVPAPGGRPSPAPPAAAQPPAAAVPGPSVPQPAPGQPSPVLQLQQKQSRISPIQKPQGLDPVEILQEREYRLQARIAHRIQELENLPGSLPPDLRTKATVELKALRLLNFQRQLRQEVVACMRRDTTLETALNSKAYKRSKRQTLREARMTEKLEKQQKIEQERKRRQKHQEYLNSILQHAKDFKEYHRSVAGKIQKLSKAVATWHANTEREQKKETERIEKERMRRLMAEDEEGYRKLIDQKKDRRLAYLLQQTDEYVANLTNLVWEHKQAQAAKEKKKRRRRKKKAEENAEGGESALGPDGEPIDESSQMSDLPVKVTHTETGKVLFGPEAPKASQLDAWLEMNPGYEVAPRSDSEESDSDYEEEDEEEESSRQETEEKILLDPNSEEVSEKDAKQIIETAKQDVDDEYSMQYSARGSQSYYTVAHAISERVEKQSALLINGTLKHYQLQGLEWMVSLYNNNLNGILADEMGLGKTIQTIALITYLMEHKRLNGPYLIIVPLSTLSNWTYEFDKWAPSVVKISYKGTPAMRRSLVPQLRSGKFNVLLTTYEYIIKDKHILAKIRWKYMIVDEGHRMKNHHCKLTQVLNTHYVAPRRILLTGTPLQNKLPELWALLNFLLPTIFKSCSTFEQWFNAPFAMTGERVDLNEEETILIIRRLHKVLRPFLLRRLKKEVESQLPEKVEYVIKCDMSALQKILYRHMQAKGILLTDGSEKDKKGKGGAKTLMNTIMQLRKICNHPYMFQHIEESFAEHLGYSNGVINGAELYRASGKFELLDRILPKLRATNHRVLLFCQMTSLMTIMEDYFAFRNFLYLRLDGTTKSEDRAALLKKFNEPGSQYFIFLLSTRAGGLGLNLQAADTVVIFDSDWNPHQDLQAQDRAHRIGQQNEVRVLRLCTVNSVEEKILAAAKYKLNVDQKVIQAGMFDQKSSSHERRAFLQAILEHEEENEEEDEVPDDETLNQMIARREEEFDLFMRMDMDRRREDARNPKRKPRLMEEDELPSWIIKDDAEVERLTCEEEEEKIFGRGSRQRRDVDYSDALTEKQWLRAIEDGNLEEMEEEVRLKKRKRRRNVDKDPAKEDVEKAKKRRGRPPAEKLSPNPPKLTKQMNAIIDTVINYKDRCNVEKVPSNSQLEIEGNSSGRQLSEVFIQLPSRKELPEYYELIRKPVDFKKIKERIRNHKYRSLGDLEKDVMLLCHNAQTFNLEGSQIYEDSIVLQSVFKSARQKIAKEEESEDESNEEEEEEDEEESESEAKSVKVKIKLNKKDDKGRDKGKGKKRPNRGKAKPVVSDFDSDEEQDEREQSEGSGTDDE

| SMILES | IC50 (BRG-1; [1]) [nM] | IC50 (BRM; [1]) [nM] | Ratio* (BRM; ratio of BRG1 IC50 to BRM IC50) | IC50 (BRG-1; ADP-Glo ATPase assay) [nM] | IC50 (BRM; ADP-Glo ATPase assay) [nM] | Ratio* (BRG1 IC50 (μM) divided by BRM IC50 (μM)) (BRM) | Ratio* (BRM; ratio BRG1 IC50 / BRM IC50) |
| --- | --- | --- | --- | --- | --- | --- | --- |
| C[C@H]1COCc2ccc(C(=O)NCc3cc4nc(-c5cccc(C6CC6)n5)cnc4cn3)cc2S1(=O)=O [Compound 443] | 1270 | 34.7 | 36.53 |  |  |  |  |
| O=C(NCc1cc2nc(N3CCCc4ccc([C@@H]5CC5(F)F)nc43)ccc2cn1)c1ccc2c(c1)S(=O)(=O)CCOC2 [Compound 689] | 882 | 40.2 | 21.94 |  |  |  |  |
| Cc1ccc(C(=O)NCc2cc3nc(-c4cncc(C5CC5)n4)ccc3cn2)cc1S(C)(=O)=O [Compound 300] |  |  |  | 733 | 64.7 | 11.32 |  |
| C[C@H]1COCc2ccc(C(=O)NCc3cc4nc(-c5cccc(C6CC6)n5)ccc4cn3)cc2S1(=O)=O [Compound 331] | 418 | 13.5 | 30.98 |  |  |  |  |
| Cc1ccc(C(=O)NCc2cc3nc(-c4cncc(C5CC5)n4)ccc3cn2)cc1S(=O)(=O)N(C)C [Compound 283] |  |  |  | 3480 | 197 | 17.67 |  |
| CS(=O)(=O)c1cc(C(=O)NCc2cc3nc(-c4cccc(N5CC[C@@H]6OCC[C@H]6C5)n4)ccc3cn2)ccc1Cl [Compound 99] |  |  |  | 884 | 78.7 | 11.24 |  |
| Cc1cc(C(=O)NCc2cc3nc(-c4cccc(N5C[C@@H](C)O[C@@H](C)C5)n4)ccc3cn2)cc2c1OCC[C@H](C)S2(=O)=O [Compound 456] | 398 | 18.5 | 21.49 |  |  |  |  |
| CN[C@H]1CCN(c2cccc(-c3ccc4cnc(CNC(=O)c5ccc6c(c5)S(=O)(=O)CCOC6)cc4n3)n2)CC1(F)F [Compound 67] |  |  |  | 586 | 89.4 | 6.55 |  |
| O=C(NCc1cc2nc(-c3cccc(C4CC4)n3)ccc2cn1)c1cc(F)c2c(c1)S(=O)(=O)CCOC2 [Compound 63] |  |  |  | 633 | 21.4 | 29.53 |  |
| CS(=O)(=O)c1cc(C(=O)NCc2cc3nc(-c4cccc(N5CC[C@H]6OCC[C@@H]6C5)n4)ccc3cn2)ccc1C(F)F [Compound 124] |  |  |  | 541 | 37.8 | 14.29 |  |
| C[C@@H]1CN(c2nccc(-c3ccc4cnc(CNC(=O)c5ccc6c(c5)S(=O)(=O)[C@@H](C)COC6)cc4n3)c2F)C[C@H](C)O1 [Compound 610] | 1110 | 51.3 | 21.62 |  |  |  |  |
| COc1c(C)cnc2c1CCCN2c1ccc2cnc(CNC(=O)c3ccc4c(c3)S(=O)(=O)CCOC4)cc2n1 [Compound 629] | 85 | 10 | 8.49 |  |  |  |  |
| CN(C)c1cnc2c(c1)OCCN2c1ccc2cnc(CNC(=O)c3ccc4c(c3)S(=O)(=O)CCOC4)cc2n1 [Compound 763] |  |  |  | 45.4 | 5.3 |  | 8.52 |
| CN1CCN(c2cccc(-c3ccc4cnc(CNC(=O)c5ccc6c(c5)S(=O)(=O)CCOC6)cc4n3)n2)CC1 [Compound 144] |  |  |  | 1350 | 147 | 9.21 |  |
| O=C(NCc1cc2nc(N3CCOc4cc(Cl)cc(F)c43)ccc2cn1)c1cc(F)c2c(c1)S(=O)(=O)CCOC2 [Compound 773] |  |  |  | 1170 | 38.5 |  | 30.25 |
| O=C(NCc1cc2nc(N3CCn4ncc(C5CC5)c4C3)ccc2cn1)c1ccc2c(c1)S(=O)(=O)CCOC2 [Compound 744] |  |  |  | 3940 | 432 |  | 9.13 |

| SMILES | IC50 (BRG-1; [1]) [nM] | IC50 (BRM; [1]) [nM] | Ratio* (BRM; ratio of BRG1 IC50 to BRM IC50) | IC50 (BRG-1; ADP-Glo ATPase assay) [nM] | IC50 (BRM; ADP-Glo ATPase assay) [nM] | Ratio* (BRG1 IC50 (μM) divided by BRM IC50 (μM)) (BRM) | Ratio* (BRM; ratio BRG1 IC50 / BRM IC50) |
| --- | --- | --- | --- | --- | --- | --- | --- |
| C[C@H]1CN(c2cccc(-c3ccc4cnc(CNC(=O)c5ccc(Cl)c(S(C)(=O)=O)c5)cc4n3)n2)CC[C@@H]1O [Compound 575] | 82.3 | 5.4 | 15.34 |  |  |  |  |
| O=C(NCc1cc2cc(-c3cccc(N4CCC4)n3)ccc2cn1)c1cnc2c(c1)S(=O)(=O)CCOC2 [Compound 256] |  |  |  | 426 | 49 | 8.69 |  |
| N#Cc1ccc2c(c1)N(c1ccc3cnc(CNC(=O)c4ccc5c(c4)S(=O)(=O)CCOC5)cc3n1)CCC2 [Compound 558] | 139 | 9.3 | 14.96 |  |  |  |  |
| COc1cccc(-c2ccc3cnc(CNC(=O)c4ccc5c(c4)S(=O)(=O)CCOC5)cc3n2)c1 [Compound 265] |  |  |  | 2400 | 167 | 14.36 |  |
| [2H]C1([2H])OC([2H])([2H])[C@H](C)S(=O)(=O)c2cc(C(=O)NCc3cc4nc(-c5cccc(N6C[C@@H](C)O[C@@H](C)C6)n5)ccc4cn3)ccc21 [Compound 715] |  |  |  | 22.1 | 5.4 |  | 4.12 |
| O=C(NCc1ncc2ccc(N3CCOc4cc(C5CC5)cnc43)cc2n1)c1ccc2c(c1)S(=O)(=O)CCOC2 [Compound 800] |  |  |  | 636 | 169 |  | 3.77 |
| Cc1cc(C(=O)NCc2cc3cc(-c4cccc(N5C[C@@H](C)O[C@@H](C)C5)n4)ccc3cn2)cc2c1COCCS2(=O)=O [Compound 728] |  |  |  | 29.6 | 12.3 |  | 2.42 |
| C[C@H]1COCc2ncc(C(=O)NCc3cc4nc(-c5cccc(C6CC6)n5)ccc4cn3)cc2S1(=O)=O [Compound 452] | 958 | 44 | 21.77 |  |  |  |  |
| O=C(NCc1cc2nc(-c3cccc(N4CC(C5COC5)C4)n3)ccc2cn1)c1ccc2c(c1)S(=O)(=O)CCOC2 [Compound 604] | 56.9 | 5.7 | 10.00 |  |  |  |  |
| Cc1cnc2c(c1)N(C)CCN2c1ccc2cnc(CNC(=O)c3ccc4c(c3)S(=O)(=O)CCOC4)cc2n1 [Compound 618] | 126 | 9 | 14.00 |  |  |  |  |
| CN1CCCc2ccc(C(=O)NCc3cc4nc(-c5cncc(C6CC6)n5)ccc4cn3)cc2S1(=O)=O [Compound 297] |  |  |  | 2030 | 140 | 14.47 |  |
| CC(C)(F)c1cccc(-c2ccc3cnc(CNC(=O)c4ccc5c(c4)S(=O)(=O)CCOC5)cc3n2)n1 [Compound 280] |  |  |  | 2170 | 212 | 10.26 |  |
| CS(=O)(=O)c1cc(C(=O)NCc2cc3nc(-c4cccc(N5CC[C@@H]6COCC6C5)n4)ccc3cn2)ccc1C(F)F (stereo partly drawn) [Compound 86] |  |  |  | 324 | 22.5 | 14.43 |  |
| O=C(NCc1cc2nc(N3CCOc4ccc(C5CCC5)nc43)ccc2cn1)c1ccc2c(c1)S(=O)(=O)CCOC2 [Compound 722] |  |  |  | 716 | 8.8 |  | 81.47 |
| C[C@@H]1CN(c2cccc(-c3ccc4cnc([C@H](C)NC(=O)c5ccc6c(c5)S(=O)(=O)[C@@H](C)COC6)cc4n3)n2)C[C@H](C)O1 [Compound 325] | 174 | 10.6 | 16.33 |  |  |  |  |
| COCCN(c1cccc(-c2ccc3cnc(CNC(=O)c4ccc5c(c4)S(=O)(=O)CCOC5)cc3n2)n1)C1CC1 [Compound 349] | 253 | 24.1 | 10.47 |  |  |  |  |

Source: patent US20230416248A1, “COMPOUNDS AND USES THEREOF” (Foghorn Therapeutics Inc., priority 2020, published 2023)
